System: Isolated mouse adult cardiomyocytes
Assay: Hypoxia and hypoxia-reoxygenation induced cardiomyocyte death, LDH release
Type: cell-based
Settings: pretreated with 10 μM
Procedure: FIG. 4. A pharmacological inhibitor of Epac1, R-CE3F4 prevents hypoxia and hypoxia-reoxygenation induced cardiomyocyte death. Isolated mouse adult cardiomyocytes, pretreated or not with either 10 μM R-CE3F4 or its analogue ΔCHO (10 μM) were exposed to hypoxia (HX) for 4 h followed by a 2 h of reoxygenation period (HX+R). Cell death was determined by LDH release. Results are expressed as means±S.E.M. The bar graph represents the average of 5 independent experiments performed in triplicate. Statistical significance was determined by 2-way ANOVA. * P<0.05 compared with indicated values.
Myocardial infarction was induced in wild-type (WT) versus Epac1^−/− littermates by left anterior descending coronary artery (LAD) ligation for 24 h. Ischemia/Reperfusion was induced by the left anterior descending coronary artery occlusion for 45 min and followed by 24 h of reperfusion. The area at risk (AAR) and infarct size were evaluated by Evans blue and TTC staining, respectively. […] Isolated mouse adult cardiomyocytes pretreated with either R-CE3F4 or (ΔCHO) were exposed to hypoxia (HX) for 4 h followed by a 2 h of reoxygenation period (HX+R). Cell death was determined by LDH release.

Q: C[C@@H]1CCc2c(cc(Br)c(F)c2Br)N1C=O [R-CE3F4] was tested. Which “HX+R-induced cardiomyocyte death (LDH release)” value (hypoxia 4 h followed by 2 h reoxygenation (HX+R)) did it give?
A: Its value is “significantly prevented”.

Q: And the “HX-induced cardiomyocyte death (LDH release)” value (hypoxia (HX) for 4 h)?
A: Its value is “significantly prevented”.
